Data as given in ChEMBL document CHEMBL3046449, “Selective Herbicidal Activities of Ethyl 5-(4, 6-Dimethoxypyrimidin-2-ylcarbamoylsulfamoyl)-1-methylpyrazole-4-carboxylate and Its Related Compounds” (J Pestic Sci, 1990).

Key:
Oryza sativa [1] = experiment: Effect on Oryza sativa (rice) plant growth in transplanted Oryza sativa field assessed as number of tillers at 20 g/ha treated after 3 days transplanting; type: organism-based; conditions: in vivo, other, 72 h
Cyperus serotinus [2] = experiment: Herbicidal activity against Cyperus serotinus assessed as weed control in transplanted rice field at 20 g/ha treated after 7 days transplanting; type: functional
unidentified [3] = experiment: Herbicidal activity against broadleaf weed assessed as weed control in transplanted rice field at 30 g/ha treated after 7 days transplanting; type: functional
Rotala indica = experiment: Herbicidal activity against Rotala indica assessed as growth inhibition in paddy condition under greenhouse at 5 g/ha measured after 18 days by preemergence activity assay; type: functional; conditions: pre-emergence, 432 h, read-out: GI
Echinochloa crus-galli [4] = experiment: Herbicidal activity against 1.5 leaf stage Echinochloa crus-galli (barnyard grass) assessed as growth inhibition treated 7 to 15 days after planting measured by postemergence activity assay; type: functional
Sagittaria pygmaea [5] = experiment: Herbicidal activity against Sagittaria pygmaea assessed as weed control in transplanted rice field at 30 g/ha treated after 10 days transplanting; type: functional
[6] = system: Schoenoplectiella juncoides; experiment: Herbicidal activity against Schoenoplectiella juncoides assessed as weed control in transplanted rice field at 30 g/ha treated after 10 days transplanting; type: functional
Oryza sativa [7] = experiment: Effect on Oryza sativa (rice) plant growth in transplanted Oryza sativa field assessed as number of tillers at 30 g/ha treated after 3 days transplanting; type: organism-based; conditions: in vivo, other, 72 h
[8] = Herbicidal activity against broadleaf weed assessed as weed control in transplanted rice field at 20 g/ha treated after 3 days transplanting; type: functional
Cyperus serotinus [9] = experiment: Herbicidal activity against Cyperus serotinus assessed as growth inhibition measured after 2 days by preemergence activity assay; type: functional
Pontederia vaginalis [10] = experiment: Herbicidal activity against Monochoria vaginalis assessed as weed control in transplanted rice field at 20 g/ha treated after 3 days transplanting; type: functional
Sagittaria pygmaea [11] = experiment: Herbicidal activity against Sagittaria pygmaea assessed as weed control in transplanted rice field at 30 g/ha treated after 3 days transplanting; type: functional
Oryza sativa [12] = experiment: Effect on Oryza sativa (rice) plant growth in transplanted Oryza sativa field assessed as plant height at 30 g/ha treated after 15 days transplanting; type: organism-based; conditions: in vivo, 360 h
Echinochloa crus-galli [13] = experiment: Herbicidal activity against Echinochloa crus-galli (barnyard grass) assessed as weed control in transplanted rice field at 30 g/ha treated after 15 days transplanting; type: functional
[14] = Phytotoxicity against Oryza sativa (rice) assessed as growth inhibition under greenhouse at 5 g/ha measured after 18 days by preemergence activity assay; type: organism-based; conditions: in vivo, read-out: GI
Pontederia vaginalis [15] = experiment: Herbicidal activity against Monochoria vaginalis assessed as growth inhibition in paddy condition under greenhouse at 5 g/ha measured after 18 days by preemergence activity assay; type: functional; conditions: pre-emergence, 432 h, read-out: GI
Pontederia vaginalis [16] = experiment: Herbicidal activity against three to five-leaf stage Monochoria vaginalis assessed as growth inhibition treated 7 to 15 days after planting measured by postemergence activity assay; type: functional
Pontederia vaginalis [17] = experiment: Herbicidal activity against Monochoria vaginalis assessed as weed control in transplanted rice field at 30 g/ha treated after 3 days transplanting; type: functional
unidentified [18] = experiment: Herbicidal activity against broadleaf weed assessed as weed control in transplanted rice field at 30 g/ha treated after 15 days transplanting; type: functional
Oryza sativa [19] = experiment: Effect on Oryza sativa (rice) plant growth in transplanted Oryza sativa field assessed as number of tillers at 30 g/ha treated after 7 days transplanting; type: organism-based; conditions: in vivo, other, 168 h
[20] = system: Schoenoplectiella juncoides; experiment: Herbicidal activity against two-leaf stage Schoenoplectiella juncoides assessed as growth inhibition treated 7 to 15 days after planting measured by postemergence activity assay; type: functional
Eleocharis kuroguwai [21] = experiment: Herbicidal activity against Eleocharis kuroguwai assessed as growth inhibition treated 7 to 15 days after planting measured by post-emergence activity assay; type: functional
Sagittaria pygmaea [22] = experiment: Herbicidal activity against two-leaf stage Sagittaria pygmaea assessed as growth inhibition treated 7 to 15 days after planting measured by post-emergence activity assay; type: functional
[23] = system: Schoenoplectiella juncoides; experiment: Herbicidal activity against Schoenoplectiella juncoides assessed as weed control in transplanted rice field at 20 g/ha treated after 7 days transplanting; type: functional
Echinochloa crus-galli [24] = experiment: Herbicidal activity against Echinochloa crus-galli (barnyard grass) assessed as weed control in transplanted rice field at 30 g/ha treated after 7 days transplanting; type: functional
Echinochloa crus-galli [25] = experiment: Herbicidal activity against Echinochloa crus-galli (barnyard grass) assessed as weed control in transplanted rice field at 20 g/ha treated after 7 days transplanting; type: functional
unidentified [26] = experiment: Herbicidal activity against broadleaf weed assessed as weed control in transplanted rice field at 30 g/ha treated after 3 days transplanting; type: functional
Sagittaria pygmaea [27] = experiment: Herbicidal activity against Sagittaria pygmaea assessed as weed control in transplanted rice field at 20 g/ha treated after 7 days transplanting; type: functional
Eleocharis kuroguwai [28] = experiment: Herbicidal activity against Eleocharis kuroguwai assessed as growth inhibition measured after 2 days by pre-emergence activity assay; type: functional
Pontederia vaginalis [29] = experiment: Herbicidal activity against Monochoria vaginalis assessed as weed control in transplanted rice field at 30 g/ha treated after 15 days transplanting; type: functional
Oryza sativa [30] = experiment: Effect on Oryza sativa (rice) plant growth in transplanted Oryza sativa field assessed as number of tillers at 30 g/ha treated after 15 days transplanting; type: organism-based; conditions: in vivo, other, 360 h
Alisma canaliculatum [31] = experiment: Herbicidal activity against Alisma canaliculatum assessed as growth inhibition measured after 2 days by pre-emergence activity assay; type: functional
Cyperus serotinus [32] = experiment: Herbicidal activity against Cyperus serotinus assessed as weed control in transplanted rice field at 30 g/ha treated after 15 days transplanting; type: functional
unidentified [33] = experiment: Herbicidal activity against broadleaf weed assessed as weed control in transplanted rice field at 30 g/ha treated after 10 days transplanting; type: functional
unidentified [34] = experiment: Herbicidal activity against broadleaf weed assessed as weed control in transplanted rice field at 20 g/ha treated after 7 days transplanting; type: functional
Pontederia vaginalis [35] = experiment: Herbicidal activity against Monochoria vaginalis assessed as growth inhibition measured after 2 days by preemergence activity assay; type: functional
Sagittaria pygmaea [36] = experiment: Herbicidal activity against Sagittaria pygmaea assessed as weed control in transplanted rice field at 20 g/ha treated after 3 days transplanting; type: functional
Echinochloa crus-galli [37] = experiment: Herbicidal activity against Echinochloa crus-galli (barnyard grass) assessed as weed control in transplanted rice field at 30 g/ha treated after 3 days transplanting; type: functional
Alisma canaliculatum [38] = experiment: Herbicidal activity against three to four-leaf stage Alisma canaliculatum assessed as growth inhibition treated 7 to 15 days after planting measured by post-emergence activity assay; type: functional
Echinochloa crus-galli [39] = experiment: Herbicidal activity against Echinochloa crus-galli (barnyard grass) assessed as growth inhibition measured after 2 days by preemergence activity assay; type: functional
Cyperus serotinus [40] = experiment: Herbicidal activity against three to four-leaf stage Cyperus serotinus assessed as growth inhibition treated 7 to 15 days after planting measured by postemergence activity assay; type: functional
Sagittaria pygmaea [41] = experiment: Herbicidal activity against Sagittaria pygmaea assessed as weed control in transplanted rice field at 30 g/ha treated after 15 days transplanting; type: functional
Cyperus serotinus [42] = experiment: Herbicidal activity against Cyperus serotinus assessed as weed control in transplanted rice field at 30 g/ha treated after 3 days transplanting; type: functional
Echinochloa crus-galli [43] = experiment: Herbicidal activity against Echinochloa crus-galli (barnyard grass) assessed as growth inhibition in paddy condition under greenhouse at 5 g/ha measured after 18 days by preemergence activity assay; type: functional; conditions: pre-emergence, 432 h, read-out: GI
[44] = system: Schoenoplectiella juncoides; experiment: Herbicidal activity against Schoenoplectiella juncoides assessed as weed control in transplanted rice field at 30 g/ha treated after 15 days transplanting; type: functional
[45] = system: Schoenoplectiella juncoides; experiment: Herbicidal activity against Schoenoplectiella juncoides assessed as growth inhibition measured after 2 days by preemergence activity assay; type: functional

CCOC(=O)c1cnn(C)c1S(=O)(=O)NC(=O)Nc1nc(OC)cc(OC)n1 [PYRAZOSULFURON ETHYL]
Activity (Oryza sativa [1]): 100%
Activity (Cyperus serotinus [2]): 100%
Activity (unidentified [3]): 100%
inhibition of growth at 5 g/ha (Rotala indica): > 90%
I75 (Echinochloa crus-galli [4]): 18 gAi/ha
Activity (Sagittaria pygmaea [5]): 95%
Activity [6]: 93%
Activity (Oryza sativa [7]): 99%
Activity [8]: 100%
I75 (Cyperus serotinus [9]): 0.9 gAi/ha
Activity (Pontederia vaginalis [10]): 100%
Activity (Sagittaria pygmaea [11]): 97%
Activity (Oryza sativa [12]): 101%
Activity (Echinochloa crus-galli [13]): 85%
inhibition at 432 h [14]: < 5%
inhibition of growth at 5 g/ha (Pontederia vaginalis [15]): > 90%
I75 (Pontederia vaginalis [16]): 2.7 gAi/ha
Activity (Pontederia vaginalis [17]): 100%
Activity (unidentified [18]): 100%
Activity (Oryza sativa [19]): 100%
I75 [20]: 13 gAi/ha
I75 (Eleocharis kuroguwai [21]): 7.4 gAi/ha
I75 (Sagittaria pygmaea [22]): 2.7 gAi/ha
Activity [23]: 100%
Activity (Echinochloa crus-galli [24]): 98%
Activity (Echinochloa crus-galli [25]): 98%
Activity (unidentified [26]): 100%
Activity (Sagittaria pygmaea [27]): 98%
I75 (Eleocharis kuroguwai [28]): 1.9 gAi/ha
Activity (Pontederia vaginalis [29]): 97%
Activity (Oryza sativa [30]): 105%
I75 (Alisma canaliculatum [31]): 2.1 gAi/ha
Activity (Cyperus serotinus [32]): 97%
Activity (unidentified [33]): 100%
Activity (unidentified [34]): 100%
I75 (Pontederia vaginalis [35]): 2.7 gAi/ha
Activity (Sagittaria pygmaea [36]): 95%
Activity (Echinochloa crus-galli [37]): 97%
I75 (Alisma canaliculatum [38]): 1.4 gAi/ha
I75 (Echinochloa crus-galli [39]): 13 gAi/ha
I75 (Cyperus serotinus [40]): 1.9 gAi/ha
Activity (Sagittaria pygmaea [41]): 95%
Activity (Cyperus serotinus [42]): 100%
inhibition of growth at 5 g/ha (Echinochloa crus-galli [43]): 40%
Activity [44]: 97%
I75 [45]: 8.3 gAi/ha
